What was measured:
Type in all cases: in vivo
Nezara viridula = Nezara viridula spray test; conditions: in Hordeum vulgare, 96 h, barley plants, larvae, after 4 days; for mortality at 100 g/ha: application rate 100 g/ha; for mortality at 500 g/ha: application rate 500 g/ha
Outline: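 Barley plants infested with N. viridula larvae were sprayed with compound in acetone/DMF diluted with water containing 1000 ppm alkylarylpolyglycol ether emulsifier. Mortality (%) was scored after 4 days; 100% means all bugs killed, 0% none.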

Rhipicephalus sanguineus = Rhipicephalus sanguineus in-vitro contact test, adult brown dog ticks (RHIPSA Cont); conditions: 48 h, after 48 hours, read-out: activity (efficacy: 100% means all ticks are dead or moribund); for pest or weed control at 1 µg/cm2, 100 g/ha: application rate 1 μg/cm^2 (=100 g/ha); for pest or weed control at 5 µg/cm2, 500 g/ha: application rate 5 μg/cm^2 (=500 g/ha)
Outline: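 Compound in acetone was coated onto the inner walls of glass tubes and dried by rotation before adult brown dog ticks were exposed. Efficacy was scored at 48 h. Ticks unable to climb away from a 45–50 °C heating plate within 5 min counted as dead or moribund.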

Myzus persicae = Myzus persicae oral test; conditions: 120 h, read-out: activity (mortality)
Outline: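 Percent mortality was recorded at day 5, where 0% means no aphids killed. Compound prepared from an acetone concentrate diluted in water and combined with IPL41 medium containing sugar was offered to mixed-stage green peach aphids, which sucked it through a parafilm seal.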

[1] = test system: Aedes aegypti strain MONHEIM; assay: Aedes aegypti test (AEDSAE surface treatment & contact assay); conditions: exposure 30 minutes, 24 hours after contact, read-out: efficacy (mortality); for mortality at 4 mg/m2: surface concentration 4 mg/m^2, glazed tile; for mortality at 20 mg/m2: surface concentration 20 mg/m^2, glazed tile
Outline: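 Compound dissolved in acetone (2 mg/ml) with 2000 ppm rapeseed oil methyl ester, pipetted onto glazed tile and dried. Adult mosquitoes exposed on the surface for 30 min; percent mortality scored 24 h after contact.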

[2] = test system: Musca domestica strain WHO—N; assay: Musca domestica test (MUSCDO surface treatment & contact assay); conditions: exposure 30 minutes, 24 hours after contact, read-out: efficacy (mortality); for mortality at 4 mg/m2: surface concentration 4 mg/m^2, glazed tile; for mortality at 20 mg/m2: surface concentration 20 mg/m^2, glazed tile
Outline: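 Compound dissolved in acetone (2 mg/ml) with 2000 ppm rapeseed oil methyl ester and pipetted onto glazed tile; after acetone evaporation, adult flies exposed to dried surface for 30 minutes. Mortality (%) scored 24 hours after contact.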

Ctenocephalides felis = Ctenocephalides felis oral test (CTECFE Oral); conditions: 48 h, read-out: activity (mortality)
Outline: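 About 20 unfed adult cat fleas fed through parafilm on cattle blood containing compound (DMSO concentrate diluted in blood to the desired concentration). Blood held at 37 °C, fleas at room temperature. Mortality (%) scored after 2 days.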

[3] = test system: Anopheles funestus strain FUMOZ-R; assay: Anopheles funestus test (ANPHFU surface treatment & contact assay); conditions: exposure 30 minutes, 24 hours after contact, read-out: efficacy (mortality); for mortality at 4 mg/m2: surface concentration 4 mg/m^2, glazed tile; for mortality at 20 mg/m2: surface concentration 20 mg/m^2, glazed tile
Outline: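 Adult FUMOZ-R mosquitoes were exposed 30 min to glazed tiles treated with compound in acetone plus 2000 ppm rapeseed oil methyl ester, after solvent evaporation. Percent mortality was scored 24 h after contact.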

SMILES | mortality at 100 g/ha (Nezara viridula) [%] | mortality at 500 g/ha (Nezara viridula) [%] | pest or weed control at 1 µg/cm2, 100 g/ha (Rhipicephalus sanguineus) [%] | pest or weed control at 5 µg/cm2, 500 g/ha (Rhipicephalus sanguineus) [%] | mortality at 0.8 ppm (Myzus persicae) [%] | mortality at 4 ppm (Myzus persicae) [%] | mortality at 4 mg/m2 [1] [%] | mortality at 20 mg/m2 [1] [%] | mortality at 4 mg/m2 [2] [%] | mortality at 20 mg/m2 [2] [%] | mortality at 100 ppm (Ctenocephalides felis) [%] | mortality at 4 mg/m2 [3] [%] | mortality at 20 mg/m2 [3] [%]
Cc1nc([C@H](C)NC(=O)c2cc(Br)cc(C(F)(F)F)c2)n(-c2ccc(C#N)cn2)n1 [II-32] | 100 | 100 | 100 | 100 | 100 | 100 | 80 to 100 | 80 to 100 | 80 to 100 | 80 to 100 | – | – | –
Cc1nc([C@H](C)NC(=O)c2cc(C(F)(F)F)cc(C(F)(F)F)c2)n(-c2ccc(C(=O)N(C)CC#N)cn2)n1 [II-99] | 100 | – | 100 | 100 | 100 | 100 | – | 80 to 100 | 80 to 100 | 80 to 100 | – | – | –
Cc1nc([C@H](C)NC(=O)c2cc(Cl)cc(C(F)(F)F)c2)n(-c2cc(C#N)ccn2)n1 [II-18] | – | – | 100 | 100 | – | 100 | – | – | 80 to 100 | 80 to 100 | 90 | – | –
Cc1nc([C@H](C)NC(=O)c2cc(C(F)(F)F)cc(C(F)(F)F)c2)n(-c2cc(C#N)ccn2)n1 [II-19] | – | – | 100 | 100 | 100 | 100 | 80 to 100 | 80 to 100 | – | 80 to 100 | 100 | – | –
C[C@H](NC(=O)c1cc(Cl)cc(C(F)(F)F)c1)c1ncnn1-c1cc(N)ccn1 [II-28] | – | 90 | 100 | 100 | – | 90 | – | 80 to 100 | – | 80 to 100 | 100 | – | –
C[C@H](NC(=O)c1cc(Cl)cc(OC(F)(F)F)c1)c1ncnn1-c1ncc(OC(F)F)cn1 [II-30] | 100 | 100 | 100 | 100 | – | 100 | 80 to 100 | 80 to 100 | 80 to 100 | 80 to 100 | 100 | – | –
C[C@H](NC(=O)c1cc(Cl)cc(OC(F)(F)F)c1)c1ncnn1-c1cc(N)ccn1 [II-7] | – | 90 | – | – | – | 100 | – | 80 to 100 | – | 80 to 100 | 100 | – | –
Cc1nc([C@H](C)NC(=O)c2cc(Cl)cc(C(F)F)c2)n(-c2ccc(C#N)cn2)n1 [II-65] | 100 | – | 100 | 100 | – | 100 | 80 to 100 | 80 to 100 | 80 to 100 | 80 to 100 | 100 | – | –
C[C@H](NC(=O)c1cc(Cl)cc(SC(F)F)c1)c1ncnn1-c1ccc(C#N)cn1 [II-11] | 100 | – | – | 80 | – | 100 | 80 to 100 | 80 to 100 | 80 to 100 | 80 to 100 | 100 | – | –
C[C@H](NC(=O)c1cc(C(F)(F)F)cc(C(F)(F)F)c1)c1ncnn1-c1ccc(C(=O)NC2CC2)cn1 [II-37] | 90 | 100 | – | 80 | 100 | 100 | 80 to 100 | 80 to 100 | – | – | – | – | –
C[C@H](NC(=O)c1cc(Br)cc(Br)c1)c1ncnn1-c1ccc(C#N)cn1 [II-13] | – | 90 | 100 | 80 | – | 90 | 80 to 100 | 80 to 100 | 80 to 100 | 80 to 100 | 100 | – | –
C[C@H](NC(=O)c1cc(OC(F)(F)F)cc(C(F)F)c1)c1ncnn1-c1ccc(C#N)cn1 [II-111] | 100 | – | 100 | 100 | 90 | 100 | 80 to 100 | – | – | 80 to 100 | – | – | –
Cc1nc([C@H](C)NC(=O)c2cc(Br)cc(Br)c2)n(-c2ccc(C#N)cn2)n1 [II-52] | – | – | 100 | 100 | 100 | 100 | 80 to 100 | 80 to 100 | 80 to 100 | 80 to 100 | 100 | 80 to 100 | 80 to 100
C[C@H](NC(=O)c1cc(Br)cc(C(F)F)c1)c1ncnn1-c1ccc(C#N)cn1 [II-83] | – | – | 100 | 100 | – | 100 | 80 to 100 | 80 to 100 | 80 to 100 | 80 to 100 | 100 | 80 to 100 | 80 to 100
C[C@H](NC(=O)c1cc(C(F)(F)F)cc(C(F)(F)F)c1)c1ncnn1-c1ncc(Br)s1 [II-41] | 90 | – | 100 | 100 | – | 100 | 80 to 100 | 80 to 100 | 80 to 100 | 80 to 100 | – | – | –
C[C@H](NC(=O)c1cc(Cl)cc(C#N)c1)c1ncnn1-c1ccc(C#N)cn1 [II-57] | 100 | – | 100 | 100 | – | – | 80 to 100 | 80 to 100 | 80 to 100 | 80 to 100 | 100 | – | –
Cc1nc([C@H](C)NC(=O)c2cc(Cl)cc(Cl)c2)n(-c2cc(C#N)ccn2)n1 [II-17] | – | – | 80 | 100 | – | – | 80 to 100 | 80 to 100 | 80 to 100 | 80 to 100 | 100 | 80 to 100 | 80 to 100
Cc1nc([C@H](C)NC(=O)c2cc(Cl)nc(C(F)(F)F)c2)n(-c2ccc(C#N)cn2)n1 [II-62] | 100 | – | 100 | 100 | – | 100 | 80 to 100 | 80 to 100 | 80 to 100 | 80 to 100 | 100 | – | –
CC(=O)Nc1ccnc(-n2ncnc2[C@H](C)NC(=O)c2cc(Cl)cc(OC(F)(F)F)c2)c1 [II-22] | – | – | – | – | – | – | 80 to 100 | 80 to 100 | 80 to 100 | 80 to 100 | 100 | 80 to 100 | 80 to 100
Cc1nc([C@H](C)NC(=O)c2cc(Cl)cc(C#N)c2)n(-c2ccc(C#N)cn2)n1 [II-61] | 100 | – | 100 | 100 | – | 100 | 80 to 100 | 80 to 100 | 80 to 100 | 80 to 100 | 100 | – | –
Cc1nc([C@H](C)NC(=O)c2cc(OC(F)(F)F)cc(C(F)F)c2)n(-c2ccc(C#N)cn2)n1 [II-117] | 100 | – | 100 | 100 | 100 | 100 | 80 to 100 | 80 to 100 | 80 to 100 | 80 to 100 | – | – | –
CC(C)c1nc([C@H](C)NC(=O)c2cncc(C(F)(F)F)c2)n(-c2ccc(C#N)cn2)n1 [I-30] | – | – | 80 | – | – | 90 | 80 to 100 | 80 to 100 | – | 80 to 100 | 100 | – | –

Source: patent US20220274947A1, “NOVEL HETEROARYL-TRIAZOLE COMPOUNDS AS PESTICIDES” (Bayer Aktiengesellschaft, priority 2019, published 2022)
